Results on ten compounds are retold here after US9422293B2 (priority 2006, dated 2016).

Counter-ions that a name gives are not always drawn.

Sequence of rat TRPV1 (O35433 whole entry): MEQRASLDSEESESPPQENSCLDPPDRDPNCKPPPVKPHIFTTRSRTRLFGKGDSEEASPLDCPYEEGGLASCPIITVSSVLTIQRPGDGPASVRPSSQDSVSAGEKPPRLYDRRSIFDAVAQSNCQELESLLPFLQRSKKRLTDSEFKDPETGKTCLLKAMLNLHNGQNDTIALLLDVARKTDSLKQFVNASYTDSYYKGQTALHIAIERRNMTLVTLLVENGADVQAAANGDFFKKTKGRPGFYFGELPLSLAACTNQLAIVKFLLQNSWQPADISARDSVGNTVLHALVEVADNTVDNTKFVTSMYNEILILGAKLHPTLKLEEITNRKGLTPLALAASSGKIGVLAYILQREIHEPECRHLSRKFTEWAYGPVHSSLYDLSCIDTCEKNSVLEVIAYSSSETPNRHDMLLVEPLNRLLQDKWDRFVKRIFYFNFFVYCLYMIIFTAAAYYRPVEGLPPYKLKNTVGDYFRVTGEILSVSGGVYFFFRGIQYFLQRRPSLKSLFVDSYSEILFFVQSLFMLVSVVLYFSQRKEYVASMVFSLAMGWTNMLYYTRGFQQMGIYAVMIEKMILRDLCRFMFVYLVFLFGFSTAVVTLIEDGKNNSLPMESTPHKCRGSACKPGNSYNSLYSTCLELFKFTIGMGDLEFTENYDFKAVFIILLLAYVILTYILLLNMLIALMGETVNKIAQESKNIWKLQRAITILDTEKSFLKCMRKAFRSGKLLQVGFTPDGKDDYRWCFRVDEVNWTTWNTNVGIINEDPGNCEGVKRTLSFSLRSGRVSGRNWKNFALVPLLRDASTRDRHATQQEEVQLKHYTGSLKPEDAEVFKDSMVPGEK

This assay concerns the target rat TRPV1 (Rattus norvegicus (Rat), UniProt O35433). The following applies: read-out: Rat IC50.
For `FC(F)(F)c1ccc(Nc2nc(N3CCCCCC3)nc3c2CCN(c2ncccc2C(F)(F)F)CC3)cn1` [Example 223, 2-Azepan-1-yl-7-[3-(trifluoromethyl)pyridin-2-yl]-N-[6-(trifluoromethyl)pyridin-3-yl]-6,7,8,9-tetrahydro-5H-pyrimido[4,5-d]azepin-4-amine], the IC50 was 30 nM.
Consider `FC(F)(F)c1ccc(Nc2nc(N3CCCCCC3)nc3c2CCN(c2ncccc2C(F)(F)F)CC3)cc1Cl` [Example 224, 2-Azepan-1-yl-N-[3-chloro-4-(trifluoromethyl)phenyl]-7-[3-(trifluoromethyl)pyridin-2-yl]-6,7,8,9-tetrahydro-5H-pyrimido[4,5-d]azepin-4-amine], for which the half-inhibitory concentration (IC50) is 20 nM.
As for `COCCN(C)c1nc2c(c(Nc3ccc(C(F)(F)F)nc3)n1)CCN(c1ncccc1C(F)(F)F)CC2` [Example 228, N^2-Methyl-N^2-[2-(methyloxy)ethyl]-7-[3-(trifluoromethyl)pyridin-2-yl]-N^4-[6-(trifluoromethyl)pyridin-3-yl]-6,7,8,9-tetrahydro-5H-pyrimido[4,5-d]azepine-2,4-diamine trifluoroacetic acid salt], the figure is 40 nM; as for `COCCN(C)c1nc2c(c(Nc3ccc(C(F)(F)F)c(Cl)c3)n1)CCN(c1ncccc1C(F)(F)F)CC2` [Example 229, N^4-[3-Chloro-4-(trifluoromethyl)phenyl]-N^2-methyl-N^2-[2-(methyloxy)ethyl]-7-[3-(trifluoromethyl)pyridin-2-yl]-6,7,8,9-tetrahydro-5H-pyrimido[4,5-d]azepine-2,4-diamine trifluoroacetic acid salt], 60 nM; as for `FC(F)(F)c1ccc(Nc2nc(N3CCC3)nc3c2CCN(c2ncccc2C(F)(F)F)CC3)cc1Cl` [Example 231, 2-Azetidin-1-yl-N-[3-chloro-4-(trifluoromethyl)phenyl]-7-[3-(trifluoromethyl)pyridin-2-yl]-6,7,8,9-tetrahydro-5H-pyrimido[4,5-d]azepin-4-amine trifluoroacetic acid salt], 100 nM.
Take `FC(F)(F)c1ccc(Nc2nc(N3CCCCC3)nc3c2CCN(c2ncccc2C(F)(F)F)CC3)cc1Cl` [Example 233, N-[3-Chloro-4-(trifluoromethyl)phenyl]-2-piperidin-1-yl-7-[3-(trifluoromethyl)pyridin-2-yl]-6,7,8,9-tetrahydro-5H-pyrimido[4,5-d]azepin-4-amine trifluoroacetic acid salt]: the IC50 was determined as 170 nM.
`FC(F)(F)c1ccc(Nc2nc(N3CCCCC3)nc3c2CCN(c2ncccc2C(F)(F)F)CC3)cn1` [Example 234, 2-Piperidin-1-yl-7-[3-(trifluoromethyl)pyridin-2-yl]-N-[6-(trifluoromethyl)pyridin-3-yl]-6,7,8,9-tetrahydro-5H-pyrimido[4,5-d]azepin-4-amine trifluoroacetic acid salt]: the concentration for half-maximal inhibition (IC50) turned out to be 80 nM.
For the compound `FC1(F)CCCN(c2nc3c(c(Nc4ccc(C(F)(F)F)cc4)n2)CCN(c2ncccc2C(F)(F)F)CC3)C1` [Example 238, 2-(3,3-Difluoropiperidin-1-yl)-N-[4-(trifluoromethyl)phenyl]-7-[3-(trifluoromethyl)pyridin-2-yl]-6,7,8,9-tetrahydro-5H-pyrimido[4,5-d]azepin-4-amine trifluoroacetic acid salt], the IC50 came to 40 nM.
Take `CC1CCCN(c2nc3c(c(Nc4ccc(C(F)(F)F)cc4)n2)CCN(c2ncccc2C(F)(F)F)CC3)C1` (stereo not shown) [Example 240, 2-(3-Methylpiperidin-1-yl)-N-[4-(trifluoromethyl)phenyl]-7-[3-(trifluoromethyl)pyridin-2-yl]-6,7,8,9-tetrahydro-5H-pyrimido[4,5-d]azepin-4-amine trifluoroacetic acid salt]: the IC50 turned out to be 20 nM.
Then `FC1(F)CN(c2nc3c(c(Nc4ccc(C(F)(F)F)cc4)n2)CCN(c2ncccc2C(F)(F)F)CC3)C1` [Example 241, 2-(3,3-Difluoroazetidin-1-yl)-N-[4-(trifluoromethyl)phenyl]-7-[3-(trifluoromethyl)pyridin-2-yl]-6,7,8,9-tetrahydro-5H-pyrimido[4,5-d]azepin-4-amine], with 170 nM.

Broadly, the IC50 is the concentration that gives 50% inhibition.
